Source: patent US20100004234A1, “SPECIFIC KINASE INHIBITORS” (Kosan Biosciences Incorporated, priority 2004, published 2010)
Like-named read-outs stand apart in the source and are kept apart here.

How the values were obtained:
[1] = test system: COLO829 (Human melanoma, B-Raf V599E); experiment: Cell proliferation assay (Cell Titer Glo); format: cell-based
Description: (§1) In one illustrative method, cells are treated with various concentrations of the inhibitor in 96 well plates, incubated at 37° C./5% CO2 for three days, and analyzed using the Cell Titer Glo kit (Promega).
(§2) COLO829 is a human melanoma cell line. HT29 is a human colon cancer cell line. Both cell lines have a V600E B-Raf mutation. SKOV3 is an ovarian cancer cell line having wild-type B-Raf. EKR2 (extra-cellular signal regulated kinase 2) is a kinase in the Ras/B-Raf MAP kinase cascade pathway.

[2] = test system: HT29 (Human colon, B-Raf V599E); experiment: Cell proliferation assay (Cell Titer Glo); format: cell-based
Description: as §1, §2

[3] = test system: A375 (Human melanoma, B-Raf V599E); experiment: Cell proliferation assay (Cell Titer Glo); format: cell-based
Description: as §1

[4] = test system: A549 (NSCLC, B-Raf wild-type); experiment: Cell proliferation assay (Cell Titer Glo); format: cell-based
Description: as §1

[5] = test system: DU4475 (Human breast, B-Raf V599E); experiment: Cell proliferation assay (Cell Titer Glo); format: cell-based
Description: as §1

[6] = test system: WM266-4 (Human melanoma, B-Raf V599D); experiment: Cell proliferation assay (Cell Titer Glo); format: cell-based
Description: as §1

[7] = biological target: T1, MEK1 (Homo sapiens, UniProt Q02750); experiment: Time-dependent kinase inhibition kinetics (pre-incubation, [32P]ATP filter binding); format: biochemical
Description: Typically, one measures the increase in inhibition of protein kinase activity in the presence of inhibitor over time. In one method, aliquots of a “pre-incubation” reaction mixture containing enzyme and inhibitor are assayed for activity (initial velocities) over time; increased inhibition or decreased initial velocities will be observed over time as the Michael adduct forms (Walsh, C, Enzyme Reaction Mechanisms, W.H. Freeman & Co., 1979, pp 86-94). In a second method, the time dependent loss of activity is measured as “progress curves” that measure and analyze product formed (e.g. ADP) versus time (Morrison & Walsh, Adv. Enzymol Relat Areas Mol. Biol. 1988, 61, 201-301). In either case, the time dependent inactivation can be dampened by the presence of a competing substrate, in this case ATP.
MEK1 and many other protein kinases that can be targets of the compounds useful in the methods of the invention can be obtained commercially (Invitrogen; Carlsbad, Calif.) or prepared using standard molecular biology techniques. After activation by phosphorylation, they are assayed for their ability to phosphorylate a target kinase or surrogate substrate. For example, MEK1 can be assayed in a mixture containing MEK1 (30 nM) and ERK1 (2 μM), [γ-^32P]ATP (10 uM) and MgCl2 in Mops buffer pH 7.6. Phosphorylation can be measured by isolating [γ-^32P]-phosphorylated ERK1 on phosphocellulose paper, and counting radioactive product. Alternatively, a coupled enzyme system may be used in which a product of the kinase reaction, such as ADP, is measured by analysis with a secondary system that converts that product (e.g. ADP) to an easily measurable entity (e.g. NADH); often, such coupled systems can be measured by convenient spectrophotometry assays.
To measure time-dependent inhibition using the “pre-incubation method”, MEK1 (or other kinase) is incubated with varying amounts of the lactone inhibitor; […]. Aliquots are removed at various times, added to a solution containing substrates [γ-^32P]ATP, ERK1 (or other substrate), and the other components of the reaction, and initial rates are determined as a measure of remaining enzyme activity.
For covalent inhibitors, plots of log (activity) versus time provide apparent first-order rate constants (kobsd) of enzyme activity loss. If these assays are performed at varying concentrations of inhibitor, a series of first-order plots is obtained and kobsd obtained at each inhibitor concentration. To measure time-dependent inhibition using the “progress-curve method” (see references cited above and Kuzmic et al., Methods Enzymol 2004; 383: 366-81), ERK (or other kinase) is treated with varying amounts of the lactone inhibitor, and the formation of ADP is measured continuously by a coupled assay. […] Such molecules may be competitive inhibitors but should not show time-dependent inactivation.
Those of skill in the art will recognize that within the set of compounds useful in the methods of the invention, significant variability in specificity can be achieved, allowing one to identify optimal compounds for different applications. Inhibition progress curve analysis was performed using continuous, colorimetric, or fluorimetric assays. All experiments were done at 1 mM ATP, with the exception of KDR (at 5 mM ATP).
(§3) MEK1 assays were performed using pre-incubation experiments with radioactive [^32P]ATP and filter binding of product. All other kinases were analyzed using progress curve analysis from a continuous spectrophotometric assay.

[8] = biological target: ERK2 (UniProt P28482); format: biochemical; set-up: Ki; other: ERK2; 1 mM ATP; kinact; T1/2; kinact/Ki; "the target Cys 172 residue; details: ERK2
Description: (§4) In either case, the time dependent inactivation can be dampened by the presence of a competing substrate, in this case ATP.
(§5) For covalent inhibitors, plots of log (activity) versus time provide apparent first-order rate constants (kobsd) of enzyme activity loss. If these assays are performed at varying concentrations of inhibitor, a series of first-order plots is obtained and kobsd obtained at each inhibitor concentration. […] Such molecules may be competitive inhibitors but should not show time-dependent inactivation.
(§6) Inhibition progress curve analysis was performed using continuous, colorimetric, or fluorimetric assays. All experiments were done at 1 mM ATP, with the exception of KDR (at 5 mM ATP).
as §3

[9] = biological target: rat MEK1 (Rattus norvegicus, UniProt Q01986); details: cited from earlier work
[10] = test system: EOL-1 (Human leukemia FLP1L1-PDGFRA); experiment: Cell proliferation assay (Cell Titer Glo); format: cell-based
Description: as §1

[11] = test system: MV4-11 (Human leukemia Flt3-ITD); experiment: Cell proliferation assay (Cell Titer Glo); format: cell-based
Description: as §1

[12] = test system: P815 (Mouse mastocytoma, KIT D814Y); experiment: Cell proliferation assay (Cell Titer Glo); format: cell-based
Description: as §1

[13] = test system: SKOV3 (ovarian cancer cell line, wild-type B-Raf); experiment: Cell proliferation assay; format: cell-based; details: Homo sapiens, SK-OV-3; Table 7; SKOV3 ovarian cancer, wild-type B-Raf; read-out: Cell Line IC50 SKOV3
Description: as §1, §2

[14] = biological target: ERK2 (UniProt P28482); format: biochemical; set-up: "the target Cys 172 residue
Description: as §4, §5, §6, §3

[15] = biological target: T1, MEK1; details: cited from earlier work
[16] = test system: PKA, PKC or Raf; details: cited from earlier work
[17] = test system: panel of 120 kinases; details: panel of some 120 kinases; cited from earlier work
[18] = test system: ASZ001 (Basal cell carcinoma); experiment: Cell proliferation assay (Cell Titer Glo); format: cell-based
Description: as §1

[19] = test system: BCCs in Ptc+/− mice; details: topical; cited from earlier work
[20] = test system: ERK1/2 activation in human T cells; details: tested at 0.3 to 3 μM; cited from earlier work
[21] = HT29 (Human colon, B-Raf V599E), Tables 1 and 4, read-out: Kinase Inhibitor IC50
[22] = A375 (Human melanoma, B-Raf V599E), Tables 1 and 4, read-out: Kinase Inhibitor IC50
[23] = A549 (NSCLC, B-Raf wild-type), Tables 1 and 4, read-out: Kinase Inhibitor IC50
[24] = DU4475 (Human breast, B-Raf V599E), Tables 1 and 4, read-out: Kinase Inhibitor IC50
[25] = WM266-4 (Human melanoma, B-Raf V599D), Tables 1 and 4, read-out: Kinase Inhibitor IC50
[26] = COLO-829, Table 7, COLO829 human melanoma, V600E B-Raf, read-out: Cell Line IC50 COLO829
[27] = HT-29, Table 7, HT29 human colon cancer, V600E B-Raf, read-out: Cell Line IC50 HT29

rat MEK1, sequence (Q01986 whole entry): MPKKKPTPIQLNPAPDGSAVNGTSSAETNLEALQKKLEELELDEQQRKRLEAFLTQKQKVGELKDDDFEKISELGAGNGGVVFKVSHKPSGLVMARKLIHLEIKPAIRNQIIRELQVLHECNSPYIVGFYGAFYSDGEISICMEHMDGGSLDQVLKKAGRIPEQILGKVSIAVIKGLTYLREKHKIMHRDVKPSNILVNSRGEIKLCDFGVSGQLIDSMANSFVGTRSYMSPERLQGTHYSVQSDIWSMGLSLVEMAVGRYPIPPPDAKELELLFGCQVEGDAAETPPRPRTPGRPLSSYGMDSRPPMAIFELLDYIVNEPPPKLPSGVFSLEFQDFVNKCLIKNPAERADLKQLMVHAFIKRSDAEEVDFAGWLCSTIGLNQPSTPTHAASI

5,6-Dihydrohypothemycin
IC50 ([1]; COLO829 (Human melanoma, B-Raf V599E), Tables 1 and 4, read-out: Kinase Inhibitor IC50): 3.7 µM
IC50 [2, 21]: 15 µM
IC50 [3, 22]: > 50 µM
IC50 [4, 23]: 107 µM
IC50 [5, 24]: 46 µM
IC50 [6, 25]: 15 µM
kinact/Ki [7]: None
Ki ([7]; 1 mM ATP): 3 µM
kinact ([7]; 1 mM ATP): None
kinact/Ki [8]: None
kinact ([8]; 1 mM ATP): None
Ki ([8]; 1 mM ATP, read-out: Ki): 28 µM

COc1cc(O)c2c(c1)/C=C/C[C@H](O)[C@H](O)C(=O)/C=C\C[C@H](C)OC2=O [(5Z)-7-oxozeaneol]
IC50 [9]: 0.411 µM

CNC(=O)c1cc(Oc2ccc(NC(=O)Nc3ccc(Cl)c(C(F)(F)F)c3)cc2)ccn1 [BAY 43-9006, Sorafenib]
GI50 ([1]; Homo sapiens, COLO-829): 6 µM
IC50 ([1]; Homo sapiens, COLO-829, read-out: Kinase Inhibitor IC50): 6 µM
IC50 ([2]; Homo sapiens, HT-29, read-out: Kinase Inhibitor IC50): 4.7 µM
IC50 ([3]; Homo sapiens, A-375, read-out: Kinase Inhibitor IC50): 4.3 µM
IC50 ([4]; Homo sapiens, A549, read-out: Kinase Inhibitor IC50): 5.5 µM
IC50 ([5]; Homo sapiens, DU-4475, read-out: Kinase Inhibitor IC50): 3.6 µM
IC50 ([10]; Homo sapiens, EOL1, read-out: Kinase Inhibitor IC50): 0.00023 µM
IC50 ([11]; Homo sapiens, MV4-11, read-out: Kinase Inhibitor IC50): 0.0023 µM
GI50 ([12]; Mus musculus, P815): 0.31 µM
IC50 ([12]; Mus musculus, P815, read-out: Kinase Inhibitor IC50): 0.31 µM
IC50 ([6]; Homo sapiens, WM 266-4, read-out: Kinase Inhibitor IC50): 5.4 µM

C[C@H]1C/C=C\C(=O)[C@@H](O)[C@@H](O)C[C@H]2O[C@@H]2c2cc(O)cc(O)c2C(=O)O1 [Compound II, 4-O-desmethylhypothemycin]
IC50 [1, 26]: 0.038 µM
IC50 [2, 27]: 0.1 µM
IC50 [13]: 1.8 µM
ERK2 Inhibition kinact. [14]: 3.3 ± 0.4 × 10^−3 sec^−1
Ki ([14]; Table 7; read-out: ERK2 Inhibition Ki): 2.2 ± 0.4 µM

COc1cc(O)c2c(c1)CCC[C@H](O)[C@H](O)C(=O)/C=C\C[C@H](C)OC2=O [L-783,277]
reduction of the IC50 value for MEK1 by pre-incubation ([15]; 60 min. pre-incubation): 10 fold
IC50 ([15]; MEK1): 0.004 µM
inhibition of PKA, PKC or Raf [16]: not

COc1cccc(-c2cc(=O)c3ccccc3o2)c1N [PD 98059]
IC50 [2, 21]: 5.5 µM
IC50 [3, 22]: 43 µM
IC50 [4, 23]: 48 µM
IC50 [5, 24]: 56 µM
IC50 [6, 25]: 21 µM

CCN(CC)CCNC(=O)c1c(C)[nH]c(/C=C2\C(=O)Nc3ccc(F)cc32)c1C [SU11248]
IC50 ([1]; COLO-829, COLO829 (Human melanoma, B-Raf V599E), Tables 1 and 4, read-out: Kinase Inhibitor IC50): 7.1 µM
GI50 ([1]; Homo sapiens, COLO-829, melanoma cell line COLO829, read-out: GI50): 7.1 µM
IC50 ([2]; HT-29, HT29 (Human colon, B-Raf V599E), Tables 1 and 4, read-out: Kinase Inhibitor IC50): 4.2 µM
IC50 ([3]; A-375, A375 (Human melanoma, B-Raf V599E), Tables 1 and 4, read-out: Kinase Inhibitor IC50): 5.4 µM
IC50 ([5]; DU-4475, DU4475 (Human breast, B-Raf V599E), Tables 1 and 4, read-out: Kinase Inhibitor IC50): 4 µM
IC50 ([10]; EOL1, EOL-1 (Human leukemia FLP1L1-PDGFRA), read-out: Kinase Inhibitor IC50): 0.0017 µM
GI50 ([11]; Homo sapiens, MV4-11, AML (FLT3 ITD) cell line MV-4-11, read-out: GI50): 0.012 µM
IC50 ([11]; MV4-11 (Human leukemia Flt3-ITD), read-out: Kinase Inhibitor IC50): 0.01 µM
IC50 ([12]; P815 (Mouse mastocytoma, KIT D814Y), read-out: Kinase Inhibitor IC50): 0.32 µM
GI50 ([12]; mouse mastocytoma cell line P815, constitutively active cKIT (D814Y), read-out: GI50): 0.32 µM
IC50 ([6]; WM 266-4, WM266-4 (Human melanoma, B-Raf V599D), Tables 1 and 4, read-out: Kinase Inhibitor IC50): 8.2 µM
number of kinases inhibited [17]: ~79

CCOC(=O)c1ccc(C#Cc2ccc3c(c2)C(C)(C)CCS3)nc1 [Tazarotene]
IC50 ([18]; ASZ001 (Basal cell carcinoma), read-out: Kinase Inhibitor IC50): 10 µM
IC50 ([18]; BCC cell line ASZ001 in culture, read-out: IC50): ~10 µM
inhibition of development of BCCs [19]: > 85%

C[C@H]1C/C=C\C(=O)[C@@H](O)[C@@H](O)C[C@H]2O[C@@H]2c2cc(OCC3CCCN(C)C3)cc(O)c2C(=O)O1 (stereo partly shown) [V]
IC50 [1, 26]: 0.079 µM
IC50 [2, 27]: 0.6 µM
IC50 [13]: 15 µM
ERK2 Inhibition kinact. ([14]; Table 7): 1 ± 0.1 × 10^−3 sec^−1
Ki ([14]; read-out: ERK2 Inhibition Ki; Table 7): 0.94 ± 0.58 µM

C[C@H]1CCCC(=O)CCC/C=C/c2cc(O)cc(O)c2C(=O)O1 [zearalenone]
inhibition of the activation of ERK1/2 [20]: not
